In ChEMBL document CHEMBL6177952, “Exploring chloro-isoxazole compounds inspired on tetrahydrofuran neolignans as promising antileishmanial agents” (Eur J Med Chem, 2025):
Activity calls are given as the source filed them. No cut-off for these calls is given here.

Tests used:
[1] = tested on: Leishmania amazonensis; test: Antileishmanial activity against leishmania amazonensis infected in BALB/c mouse assessed as reduction in viable parasites in footpad tissue at 5 mg/kg, ILES measured after 65 days post infection relative to control; type: functional; conditions: time 65 day
[2] = Cytotoxicity against BALB/c mouse Peritoneal macrophage assessed as inhibition of cell growth incubated for 48 hrs by MTT assay; type: toxicity, cell-based; conditions: peritoneal macrophages
[3] = tested on: Leishmania amazonensis; test: Antileishmanial activity against leishmania amazonensis IFLA/BR/1967/PH8 promastigotes infected in mouse Peritoneal macrophage incubated for 24 hrs; type: functional, organism-based; conditions: IFLA/BR/1967/PH8, Peritoneal macrophage
[4] = Selectivity ratio of CC50 for cytotoxicity against BALB/c mouse Peritoneal macrophage assessed as inhibition of cell growth to IC50 for antileishmanial activity against leishmania amazonensis IFLA/BR/1967/PH8 promastigotes infected in mouse Peritoneal macrophage; type: toxicity, cell-based; conditions: peritoneal macrophages, read-out: Ratio CC50/IC50
[5] = Selectivity ratio of CC50 for cytotoxicity against BALB/c mouse Peritoneal macrophage assessed as inhibition of cell growth to IC50 for antileishmanial activity against leishmania amazonensis IFLA/BR/1967/PH8 intracellular amastigote infected in mouse Peritoneal macrophage; type: toxicity, cell-based; conditions: peritoneal macrophages, read-out: Ratio CC50/IC50
[6] = tested on: Leishmania amazonensis; test: Potency index, ratio of Amphotericin B IC50 to test compound IC50 for antileishmanial activity against leishmania amazonensis IFLA/BR/1967/PH8 promastigotes infected in mouse Peritoneal macrophage incubated for 24 hrs; type: functional
[7] = tested on: Leishmania amazonensis; test: Potency index, ratio of pentamidine IC50 to test compound IC50 for antileishmanial activity against leishmania amazonensis IFLA/BR/1967/PH8 promastigotes infected in mouse Peritoneal macrophage incubated for 24 hrs; type: functional
[8] = tested on: Leishmania amazonensis; test: Antileishmanial activity against leishmania amazonensis infected in BALB/c mouse assessed as reduction in lesion size at 5 mg/kg, ILES measured at 6 to 9 week post infection; type: functional, organism-based; conditions: time 6-9 weeks
[9] = tested on: Leishmania amazonensis; test: Antileishmanial activity against leishmania amazonensis infected in BALB/c mouse assessed as reduction in parasite load in footpad tissue at 5 mg/kg, ILES measured after 65 days post infection by limiting dilution assay; type: functional, organism-based; conditions: time 65.0 day
[10] = tested on: Leishmania amazonensis; test: Antileishmanial activity against leishmania amazonensis infected in BALB/c mouse assessed as reduction in […] at 5 mg/kg, ILES measured after 65 days post infection by limiting dilution assay; type: functional, organism-based; conditions: time 65.0 day
[11] = tested on: Mitochondrial membrane; test: Induction of mitochondrial membrane potential in Leishmania amazonensis promastigotes at 38.1 uM measured at 48 hrs by flow cytometry analysis; type: cell membranes
[12] = tested on: Mitochondrial membrane; test: Induction of mitochondrial membrane potential in Leishmania amazonensis promastigotes at 38.1 uM measured at 72 hrs by flow cytometry analysis; type: cell membranes
[13] = Mutagenicity in Salmonella typhimurium TA102 assessed as number of revertant colonies per plate at 1500 microg/ml in presence of S9 fraction by Ames test; type: toxicity, subcellular; conditions: salmonella enterica subsp. enterica serovar typhimurium, dose 1500 µg/ml
[14] = Mutagenicity in Salmonella typhimurium TA98 assessed as number of revertant colonies per plate at 50 microg/ml by Ames test; type: toxicity; conditions: salmonella enterica subsp. enterica serovar typhimurium; dose 50 µg/ml
[15] = Mutagenicity in Salmonella typhimurium TA98 assessed as number of revertant colonies per plate at 150 microg/ml by Ames test; type: toxicity; conditions: salmonella enterica subsp. enterica serovar typhimurium; dose 150 µg/ml
[16] = Mutagenicity in Salmonella typhimurium TA98 assessed as number of revertant colonies per plate at 500 microg/ml by Ames test; type: toxicity; conditions: salmonella enterica subsp. enterica serovar typhimurium; dose 500 µg/ml
[17] = Mutagenicity in Salmonella typhimurium TA98 assessed as number of revertant colonies per plate at 1500 microg/ml by Ames test; type: toxicity; conditions: salmonella enterica subsp. enterica serovar typhimurium; dose 1500 µg/ml
[18] = Mutagenicity in Salmonella typhimurium TA98 assessed as number of revertant colonies per plate at 5000 microg/ml by Ames test; type: toxicity; conditions: salmonella enterica subsp. enterica serovar typhimurium; dose 5000 µg/ml
[19] = Mutagenicity in Salmonella typhimurium TA100 assessed as number of revertant colonies per plate at 50 microg/ml by Ames test; type: toxicity; conditions: salmonella enterica subsp. enterica serovar typhimurium; dose 50 µg/ml
[20] = Mutagenicity in Salmonella typhimurium TA100 assessed as number of revertant colonies per plate at 150 microg/ml by Ames test; type: toxicity; conditions: salmonella enterica subsp. enterica serovar typhimurium; dose 150 µg/ml
[21] = Mutagenicity in Salmonella typhimurium TA100 assessed as number of revertant colonies per plate at 1500 microg/ml by Ames test; type: toxicity; conditions: salmonella enterica subsp. enterica serovar typhimurium; dose 1500 µg/ml
[22] = Mutagenicity in Salmonella typhimurium TA102 assessed as number of revertant colonies per plate at 50 microg/ml by Ames test; type: toxicity; conditions: salmonella enterica subsp. enterica serovar typhimurium; dose 50 µg/ml
[23] = Mutagenicity in Salmonella typhimurium TA102 assessed as number of revertant colonies per plate at 150 microg/ml in presence of S9 fraction by Ames test; type: toxicity, subcellular; conditions: salmonella enterica subsp. enterica serovar typhimurium, dose 150 µg/ml
[24] = Mutagenicity in Salmonella typhimurium TA102 assessed as number of revertant colonies per plate at 150 microg/ml by Ames test; type: toxicity; conditions: salmonella enterica subsp. enterica serovar typhimurium; dose 150 µg/ml
[25] = Mutagenicity in Salmonella typhimurium TA102 assessed as number of revertant colonies per plate at 500 microg/ml in presence of S9 fraction by Ames test; type: toxicity, subcellular; conditions: salmonella enterica subsp. enterica serovar typhimurium, dose 500 µg/ml
[26] = Mutagenicity in Salmonella typhimurium TA102 assessed as number of revertant colonies per plate at 500 microg/ml by Ames test; type: toxicity; conditions: salmonella enterica subsp. enterica serovar typhimurium; dose 500 µg/ml
[27] = Mutagenicity in Salmonella typhimurium TA102 assessed as number of revertant colonies per plate at 1500 microg/ml by Ames test; type: toxicity; conditions: salmonella enterica subsp. enterica serovar typhimurium; dose 1500 µg/ml
[28] = Mutagenicity in Salmonella typhimurium TA102 assessed as number of revertant colonies per plate at 5000 microg/ml in presence of S9 fraction by Ames test; type: toxicity, subcellular; conditions: salmonella enterica subsp. enterica serovar typhimurium, dose 5000 µg/ml
[29] = tested on: Leishmania amazonensis; test: Antileishmanial activity against Leishmania amazonensis promastigotes assessed as early apoptotic parasites at 38.1 uM incubated for 24 hrs by Annexin V/7-AAD staining based flow cytometry analysis relative to control; type: functional
[30] = tested on: Leishmania amazonensis; test: Antileishmanial activity against Leishmania amazonensis promastigotes assessed as late apoptotic parasites at 38.1 uM incubated for 24 hrs by Annexin V/7-AAD staining based flow cytometry analysis relative to control; type: functional
[31] = tested on: Leishmania amazonensis; test: Antileishmanial activity against Leishmania amazonensis promastigotes assessed as viable apoptotic parasites at 38.1 uM incubated for 24 hrs by Annexin V/7-AAD staining based flow cytometry analysis relative to control; type: functional
[32] = tested on: Leishmania amazonensis; test: Antileishmanial activity against Leishmania amazonensis promastigotes assessed as viable apoptotic parasites at 38.1 uM incubated for 48 hrs by Annexin V/7-AAD staining based flow cytometry analysis relative to control; type: functional
[33] = tested on: Leishmania amazonensis; test: Antileishmanial activity against Leishmania amazonensis promastigotes assessed as necrotic parasites at 38.1 uM incubated for 48 hrs by Annexin V/7-AAD staining based flow cytometry analysis relative to control; type: functional
[34] = tested on: Leishmania amazonensis; test: Antileishmanial activity against Leishmania amazonensis promastigotes assessed as viable apoptotic parasites at 38.1 uM incubated for 72 hrs by Annexin V/7-AAD staining based flow cytometry analysis relative to control; type: functional
[35] = tested on: Leishmania amazonensis; test: Antileishmanial activity against Leishmania amazonensis promastigotes assessed as necrotic parasites at 38.1 uM incubated for 72 hrs by Annexin V/7-AAD staining based flow cytometry analysis relative to control; type: functional

## COc1cc(-c2cc(-c3ccc4c(c3)OCO4)on2)c(Cl)c(OC)c1OC
[1]
  Activity: 99.5%
[2]
  CC50 at 48 h: 50.1 µM
[3]
  IC50: 38.1 µM
[4]
  selectivity ratio: 1.3
[5]
  selectivity ratio: 22.7
[6]
  Ratio IC50: 3.6
[7]
  Ratio IC50: 29
[8]
  Activity: Active
[9]
  Activity: Active
[10]
  Activity: Active
[11]
  Activity: Active
[12]
  Activity: Active
[13]
  Activity: 100 revertants/plate
[14]
  Activity: 19.7 revertants/plate
[15]
  revertant count: 9.7 revertants/plate
[16]
  revertant count: 23.3 revertants/plate
[17]
  revertant count: 32.7 revertants/plate
[18]
  revertant count: 21.3 revertants/plate
[19]
  revertant count: 103 revertants/plate
[20]
  Activity: 94.6 revertants/plate
[21]
  Activity: 116 revertants/plate
[22]
  revertant count: 139 revertants/plate
[23]
  Activity: 187 revertants/plate
[24]
  Activity: 142 revertants/plate
[25]
  revertant count: 109 revertants/plate
[26]
  revertant count: 161 revertants/plate
[27]
  Activity: 182 revertants/plate
[28]
  revertant count: 100 revertants/plate
[29]
  Activity: 0.8%
[30]
  Activity: 0.4%
[31]
  Activity: 95.5%
[32]
  Activity: 95.2%
[33]
  Activity: 0.6%
[34]
  Activity: 93.2%
[35]
  Activity: 2.5%
